Test results as given in PMC12856317, “A reversible feedback mechanism regulating mitochondrial heme synthesis” (The Journal of Biological Chemistry, 2025).
Residue numbers refer to the chain shown, from its start.

What was measured:
[1] = biological target: T1, holoALAS2 Cys-mut (C70A/C555A/C558A) (Homo sapiens, UniProt P22557, C555A/C558A/C70A); experiment: Colorimetric ALA release activity assay, hemin inhibition of holoenzyme; type: biochemical; details: 0.1 μM–60 μM hemin titrated into holoenzyme
T1 construct: Site-directed mutagenesis was performed on the mature ALAS2 (residues 54–587) construct to generate truncations and cysteine mutants; His6-SUMO (N, cleaved yes); made in house; host or cells: Escherichia coli BL21-Codon Plus (DE3)-RIL
T1 sequence (P22557 54-587 C70A/C555A/C558A): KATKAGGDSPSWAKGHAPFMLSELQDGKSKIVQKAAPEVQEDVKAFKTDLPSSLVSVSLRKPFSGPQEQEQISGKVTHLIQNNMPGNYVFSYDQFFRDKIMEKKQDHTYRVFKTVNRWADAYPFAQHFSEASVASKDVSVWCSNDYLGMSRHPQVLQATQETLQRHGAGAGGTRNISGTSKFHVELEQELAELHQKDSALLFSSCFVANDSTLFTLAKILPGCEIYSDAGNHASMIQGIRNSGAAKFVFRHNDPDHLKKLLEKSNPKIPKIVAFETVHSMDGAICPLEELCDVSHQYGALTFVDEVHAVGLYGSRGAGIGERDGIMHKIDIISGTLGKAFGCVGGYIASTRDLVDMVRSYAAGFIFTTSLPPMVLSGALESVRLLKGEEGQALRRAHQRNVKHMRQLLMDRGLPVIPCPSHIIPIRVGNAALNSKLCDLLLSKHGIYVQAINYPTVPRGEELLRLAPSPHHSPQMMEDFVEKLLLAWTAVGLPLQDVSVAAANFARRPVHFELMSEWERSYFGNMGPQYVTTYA
Procedure: (§1) A discontinuous colorimetric activity assay adapted from Shoolingin-Jordan et al. and Bailey et al. was used to measure the enzyme activity ([48], [74]). The reaction was initiated by adding 100 nM purified enzyme to 50 mM potassium phosphate, pH 7.0, 10 mM MgCl2, 1 mM DTT, 100 mM glycine, and 300 μM succinyl-CoA (175 μl total). The reaction was incubated at 37 °C for 15 min and terminated with 100 μl of cold 10% trichloroacetic acid. The precipitated protein was removed by centrifugation for 5 min at 13,000g, and 240 μl of the supernatant was mixed with 240 μl of 1 M sodium acetate, pH 4.6. To derivatize ALA, 20 μl of acetylacetone was added to the mixture and boiled at 100 °C for 10 min. After the sample was cooled for 20 min, 100 μl aliquots were transferred into a clear 96-well plate in triplicate. An equal volume of Ehrlich’s reagent (p-Dimethylaminobenzaldehyde, DMAB) was added to each well, and the absorbance was monitored at 553 nm using a microplate reader (Thermo Fisher Scientific). The peak absorbance value was converted to molar ALA concentration using ε553 = 60,400 M^−1 cm^−1.
(§2) Inhibition of enzyme activity was determined by titrating hemin (0.1 μM–60 μM) into the substrate mixture before initiating the reaction upon enzyme addition. Hemin was dissolved in 100% dimethyl sulfoxide (DMSO) (ε403 nm = 170,000 M^−1 cm^−1) and serially diluted in 100% DMSO to prepare stock solutions for each concentration. The final DMSO concentration in the reaction mixture was 2%. All experiments were performed with a minimum of three biological replicates, each with three technical replicates. Data were fitted using nonlinear regression to generate an inhibitor dose-response curve (IC50) or an agonist dose-response curve (EC50), and statistical significance was determined using a one-way ANOVA with GraphPad Prism 10.

[2] = biological target: T2, WT holoALAS2 (residues 54–587) (Homo sapiens, UniProt P22557); experiment: as above; type: biochemical; details: 0.1 μM–60 μM hemin titrated into holoALAS2, rate of ALA release
T2 construct: His6-SUMO (N, cleaved yes); made in house; host or cells: Escherichia coli BL21-Codon Plus (DE3)-RIL
T2 sequence (P22557 54-587): T1 sequence (P22557 54-587 C70A/C555A/C558A) with A17C, A502C, A505C
Procedure: as §1, §2

[3] = biological target: T3, WT human ALAS2 (residues 54–587) (Homo sapiens, UniProt P22557); experiment: Isothermal titration calorimetry, hemin-protein interaction; type: binding; details: ITC, 25 °C
T3 construct: His6-SUMO (N, cleaved yes); made in house; host or cells: Escherichia coli BL21-Codon Plus (DE3)-RIL
T3 sequence (P22557 54-587): T1 sequence (P22557 54-587 C70A/C555A/C558A) with A17C, A502C, A505C
Procedure: Binding curves of the hemin-protein interaction were determined using Nano-ITC instrument (TA instruments) at 25 °C. Hemin was dissolved in 1 M NaOH and autoclaved to prepare a stock solution of 746 μM, ε385nm = 58,440 M^−1 cm^−1. The stock solution was diluted to 1.5 μM in titration buffer containing 25 mM Hepes, pH 7, 150 mM KCl, and 0.5 mM TCEP. Protein samples were dialyzed into the titration buffer and diluted to a final concentration of 40 μM. Fixed volumes of protein were injected at 200-s intervals into the cell containing hemin. An A + B hetero-association model was used to determine the thermodynamic parameters for each variant. Data were integrated and analyzed using NITPIC and SEDPHAT and visualized using GUSSI ([71], [72], [73]).

[4] = 95% confidence interval in brackets

IC50 [1]: 24.8 ± 0.5 µM | IC50 [2]: 18.7 ± 0.5 µM | ΔG [3]: -9.05 kcal/mol | ΔS [3]: −1.25 kcal/mol K | Kd [3, 4]: 0.232 µM | ΔH [3, 4]: −382 [−440, −342] kcal/mol | Kd ([3]; 95% confidence interval in brackets, listed as heme): ~0.23 µM
Substance: ferric chloride heme [hemin]
